Converted amounts (≈) assume the structure as drawn.
Key:
S. aureus Newman [1] = experiment: fitness (endpoint OD595 vs no drug) (fraction); higher = more growth
Method in brief: (§1)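 With the first reading as background, OD595 was measured every 30 min for 14 h in 384-well plates kept at 37 °C and inoculated at OD595 0.01. TSB, LB Lennox or CY was the medium. Fitness is the optical density at the transition into stationary phase divided by the robust mean of no-drug control wells, with a cap of 1.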

S. aureus DSM 20231 [2] = experiment: as above
Method in brief: as §1

B. subtilis 168 [3] = experiment: as above
Method in brief: as §1

S. pneumoniae D39V [4] = experiment: as above
Method in brief: as §1

S. aureus Newman [5] = experiment: Bliss interaction score (quartile over a dose matrix) (fitness difference); higher = more antagonism (negative = synergy)
Method in brief: (§2)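 Quartiles summarise the Bliss score over technical, biological and donor/recipient replicates, where the score is observed minus expected fitness under a product model. Expected fitness uses single-drug values inferred from combination data. Fitness is OD595 at entry into stationary phase over the plate's robust no-drug mean, capped at 1.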

S. aureus DSM 20231 [6] = experiment: as above
Method in brief: as §2

B. subtilis 168 [7] = experiment: as above
Method in brief: as §2

S. pneumoniae D39V [8] = experiment: as above
Method in brief: as §2

S. aureus Newman [9] = tested on: S. aureus Newman
S. aureus DSM 20231 [10] = tested on: S. aureus DSM 20231
B. subtilis 168 [11] = tested on: B. subtilis 168
S. pneumoniae D39V [12] = tested on: S. pneumoniae D39V
[13] = first compound 1.25 µg/mL, partner 1 µg/mL
[14] = first compound 1.25 µg/mL, partner 2 µg/mL
[15] = first compound 1.25 µg/mL, partner 4 µg/mL
[16] = first compound 2.5 µg/mL, partner 1 µg/mL
[17] = first compound 2.5 µg/mL, partner 2 µg/mL
[18] = first compound 5 µg/mL, partner 1 µg/mL
[19] = first compound 5 µg/mL, partner 2 µg/mL
[20] = first compound 5 µg/mL, partner 4 µg/mL
[21] = first compound 2.5 µg/mL, partner 4 µg/mL
[22] = first compound 1.25 µg/mL, partner 0.5 µg/mL, one replicate
[23] = first compound 2.5 µg/mL, partner 0.5 µg/mL, one replicate
[24] = first compound 5 µg/mL, partner 0.5 µg/mL, one replicate
[25] = first compound 1.25 µg/mL, partner 0.0625 µg/mL
[26] = first compound 1.25 µg/mL, partner 0.125 µg/mL
[27] = first compound 1.25 µg/mL, partner 0.25 µg/mL
[28] = first compound 1.25 µg/mL, partner 1 µg/mL, one replicate
[29] = first compound 2.5 µg/mL, partner 0.0625 µg/mL
[30] = first compound 2.5 µg/mL, partner 0.125 µg/mL
[31] = first compound 2.5 µg/mL, partner 0.25 µg/mL
[32] = first compound 2.5 µg/mL, partner 1 µg/mL, one replicate
[33] = first compound 5 µg/mL, partner 0.0625 µg/mL
[34] = first compound 5 µg/mL, partner 0.125 µg/mL
[35] = first compound 5 µg/mL, partner 0.25 µg/mL
[36] = first compound 5 µg/mL, partner 1 µg/mL, one replicate
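Throughout, for Bliss interaction score (quartile over a dose matrix): first quartile when negative (synergy) and third quartile when positive (antagonism).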

Compound: C[n+]1ccc(-c2cc[n+](C)cc2)cc1 [Paraquat] + Cc1cc(NS(=O)(=O)c2ccc(N)cc2)no1 [Sulfamethoxazol]
- fitness (S. aureus Newman [1]; [13]): 0.977
- fitness (S. aureus Newman [1]; [14]): 0.946
- fitness (S. aureus Newman [1]; [15]): 0.915
- fitness (S. aureus Newman [1]; first compound 1.25 µg/mL, partner 8 µg/mL, one replicate): 0.949
- fitness (S. aureus Newman [1]; [16]): 0.985
- fitness (S. aureus Newman [1]; [17]): 0.964
- fitness (S. aureus Newman [1]; first compound 2.5 µg/mL, partner 8 µg/mL, one replicate): 0.818
- fitness (S. aureus Newman [1]; [18]): 0.928
- fitness (S. aureus Newman [1]; [19]): 0.969
- fitness (S. aureus Newman [1]; [20]): 0.881
- fitness (S. aureus Newman [1]; first compound 5 µg/mL, partner 8 µg/mL, one replicate): 0.874
- fitness (S. aureus DSM 20231 [2]; [13]): 0.952
- fitness (S. aureus DSM 20231 [2]; [14]): 0.959
- fitness (S. aureus DSM 20231 [2]; [15]): 0.946
- fitness (S. aureus DSM 20231 [2]; [16]): 0.882
- fitness (S. aureus DSM 20231 [2]; [17]): 0.866
- fitness (S. aureus DSM 20231 [2]; [21]): 0.842
- fitness (S. aureus DSM 20231 [2]; [18]): 0.812
- fitness (S. aureus DSM 20231 [2]; [19]): 0.868
- fitness (S. aureus DSM 20231 [2]; [20]): 0.885
- fitness (B. subtilis 168 [3]; [22]): 0.922
- fitness (B. subtilis 168 [3]; [13]): 0.928
- fitness (B. subtilis 168 [3]; [14]): 0.901
- fitness (B. subtilis 168 [3]; [15]): 0.976
- fitness (B. subtilis 168 [3]; [23]): ≥ 1
- fitness (B. subtilis 168 [3]; [16]): 0.901
- fitness (B. subtilis 168 [3]; [17]): 0.883
- fitness (B. subtilis 168 [3]; [21]): 0.911
- fitness (B. subtilis 168 [3]; [24]): 0.82
- fitness (B. subtilis 168 [3]; [18]): 0.821
- fitness (B. subtilis 168 [3]; [19]): 0.823
- fitness (B. subtilis 168 [3]; [20]): 0.853
- fitness (S. pneumoniae D39V [4]; first compound 1.5 µg/mL, partner 1 µg/mL): 0.979
- fitness (S. pneumoniae D39V [4]; first compound 1.5 µg/mL, partner 2 µg/mL): 0.971
- fitness (S. pneumoniae D39V [4]; first compound 1.5 µg/mL, partner 4 µg/mL): 0.926
- fitness (S. pneumoniae D39V [4]; first compound 3 µg/mL, partner 1 µg/mL): 0.966
- fitness (S. pneumoniae D39V [4]; first compound 3 µg/mL, partner 2 µg/mL): 0.992
- fitness (S. pneumoniae D39V [4]; first compound 3 µg/mL, partner 4 µg/mL): 0.931
- fitness (S. pneumoniae D39V [4]; first compound 6 µg/mL, partner 1 µg/mL): 0.995
- fitness (S. pneumoniae D39V [4]; first compound 6 µg/mL, partner 2 µg/mL): 0.986
- fitness (S. pneumoniae D39V [4]; first compound 6 µg/mL, partner 4 µg/mL): 0.94
- Bliss interaction score (S. aureus Newman [5]): 0.0523
- Bliss interaction score (S. aureus DSM 20231 [6]): -0.0548
- Bliss interaction score (B. subtilis 168 [7]): 0.0341
- Bliss interaction score (S. pneumoniae D39V [8]): -0.0314

Compound: Cn1c2cccc(=O)c-2nc2ccccc21 [Pyocyanin]
- fitness (S. aureus Newman [1]; 1.25 µg/mL): 0.896
- fitness (S. aureus Newman [1]; 2.5 µg/mL): 0.843
- fitness (S. aureus Newman [1]; 5 µg/mL): 0.399
- fitness (S. aureus DSM 20231 [2]; 1.25 µg/mL): 0.997
- fitness (S. aureus DSM 20231 [2]; 2.5 µg/mL): 0.892
- fitness (S. aureus DSM 20231 [2]; 5 µg/mL): 0.59
- fitness (B. subtilis 168 [3]; 1.25 µg/mL): 0.886
- fitness (B. subtilis 168 [3]; 2.5 µg/mL): 0.841
- fitness (B. subtilis 168 [3]; 5 µg/mL): 0.708
- fitness (S. pneumoniae D39V [4]; 0.325 µg/mL): ≥ 1
- fitness (S. pneumoniae D39V [4]; 0.65 µg/mL): 0.991
- fitness (S. pneumoniae D39V [4]; 1.3 µg/mL): 0.835
- MIC (S. aureus Newman [9]): 5 µg/mL (≈ 23.8 µM)
- MIC (S. aureus DSM 20231 [10]): 5 µg/mL (≈ 23.8 µM)
- MIC (B. subtilis 168 [11]): 5 µg/mL (≈ 23.8 µM)
- MIC (S. pneumoniae D39V [12]): 1.44 µg/mL (≈ 6.85 µM)

Compound: Cn1c2cccc(=O)c-2nc2ccccc21 [Pyocyanin] + CC1=C\[C@@H](O)CC(=O)Cc2nc(co2)C(=O)N2CCC=C2C(=O)O[C@H](C(C)C)[C@H](C)/C=C/C(=O)NC\C=C\1 [Virginiamycin M1]
- fitness (S. aureus Newman [1]; [25]): 0.823
- fitness (S. aureus Newman [1]; [26]): 0.833
- fitness (S. aureus Newman [1]; [27]): 0.823
- fitness (S. aureus Newman [1]; [22]): 0.921
- fitness (S. aureus Newman [1]; [28]): ≥ 1
- fitness (S. aureus Newman [1]; first compound 1.25 µg/mL, partner 2 µg/mL, one replicate): 0.92
- fitness (S. aureus Newman [1]; [29]): 0.752
- fitness (S. aureus Newman [1]; [30]): 0.766
- fitness (S. aureus Newman [1]; [31]): 0.776
- fitness (S. aureus Newman [1]; [23]): 0.939
- fitness (S. aureus Newman [1]; [32]): 0.965
- fitness (S. aureus Newman [1]; first compound 2.5 µg/mL, partner 2 µg/mL, one replicate): 0.952
- fitness (S. aureus Newman [1]; [33]): 0.369
- fitness (S. aureus Newman [1]; [34]): 0.422
- fitness (S. aureus Newman [1]; [35]): 0.352
- fitness (S. aureus Newman [1]; [24]): 0.844
- fitness (S. aureus Newman [1]; [36]): 0.885
- fitness (S. aureus Newman [1]; first compound 5 µg/mL, partner 2 µg/mL, one replicate): 0.734
- fitness (S. aureus DSM 20231 [2]; [25]): 0.883
- fitness (S. aureus DSM 20231 [2]; [26]): 0.923
- fitness (S. aureus DSM 20231 [2]; [27]): 0.808
- fitness (S. aureus DSM 20231 [2]; [22]): 0.913
- fitness (S. aureus DSM 20231 [2]; [28]): 0.882
- fitness (S. aureus DSM 20231 [2]; [29]): 0.854
- fitness (S. aureus DSM 20231 [2]; [30]): 0.86
- fitness (S. aureus DSM 20231 [2]; [31]): 0.89
- fitness (S. aureus DSM 20231 [2]; [23]): 0.816
- fitness (S. aureus DSM 20231 [2]; [32]): 0.787
- fitness (S. aureus DSM 20231 [2]; [33]): 0.562
- fitness (S. aureus DSM 20231 [2]; [34]): 0.589
- fitness (S. aureus DSM 20231 [2]; [35]): 0.621
- fitness (S. aureus DSM 20231 [2]; [24]): 0.556
- fitness (S. aureus DSM 20231 [2]; [36]): 0.616
- fitness (B. subtilis 168 [3]; [25]): 0.924
- fitness (B. subtilis 168 [3]; [26]): 0.89
- fitness (B. subtilis 168 [3]; [27]): 0.885
- fitness (B. subtilis 168 [3]; [29]): 0.862
- fitness (B. subtilis 168 [3]; [30]): 0.84
- fitness (B. subtilis 168 [3]; [31]): 0.857
- fitness (B. subtilis 168 [3]; [33]): 0.734
- fitness (B. subtilis 168 [3]; [34]): 0.741
- fitness (B. subtilis 168 [3]; [35]): 0.758
- fitness (S. pneumoniae D39V [4]; first compound 0.325 µg/mL, partner 0.15 µg/mL, one replicate): ≥ 1
- fitness (S. pneumoniae D39V [4]; first compound 0.325 µg/mL, partner 0.3 µg/mL, one replicate): 0.988
- fitness (S. pneumoniae D39V [4]; first compound 0.325 µg/mL, partner 0.5 µg/mL): ≥ 1
- fitness (S. pneumoniae D39V [4]; first compound 0.325 µg/mL, partner 1 µg/mL): ≥ 1
- fitness (S. pneumoniae D39V [4]; first compound 0.325 µg/mL, partner 2 µg/mL): 0.969
- fitness (S. pneumoniae D39V [4]; first compound 0.65 µg/mL, partner 0.15 µg/mL, one replicate): ≥ 1
- fitness (S. pneumoniae D39V [4]; first compound 0.65 µg/mL, partner 0.3 µg/mL, one replicate): 0.994
- fitness (S. pneumoniae D39V [4]; first compound 0.65 µg/mL, partner 0.5 µg/mL): ≥ 1
- fitness (S. pneumoniae D39V [4]; first compound 0.65 µg/mL, partner 1 µg/mL): ≥ 1
- fitness (S. pneumoniae D39V [4]; first compound 0.65 µg/mL, partner 2 µg/mL): 0.992
- fitness (S. pneumoniae D39V [4]; first compound 1.3 µg/mL, partner 0.15 µg/mL, one replicate): 0.935
- fitness (S. pneumoniae D39V [4]; first compound 1.3 µg/mL, partner 0.3 µg/mL, one replicate): 0.859
- fitness (S. pneumoniae D39V [4]; first compound 1.3 µg/mL, partner 0.5 µg/mL, one replicate): 0.878
- fitness (S. pneumoniae D39V [4]; first compound 1.3 µg/mL, partner 1 µg/mL, one replicate): 0.815
- fitness (S. pneumoniae D39V [4]; first compound 1.3 µg/mL, partner 2 µg/mL): 0.828
- Bliss interaction score (S. aureus Newman [5]): 0.0515
- Bliss interaction score (S. aureus DSM 20231 [6]): -0.0636
- Bliss interaction score (B. subtilis 168 [7]): -0.0635
- Bliss interaction score (S. pneumoniae D39V [8]): 0.0505

From the supplement of paper PMC10627819
